Tested on: rumen liquor
Assay: In vitro test for methane production (modified Hohenheim Forage value Test, HFT)
Type: cell-based
Conditions: TMR feed, 8 h at 39° C.
Experimental: In vitro test for methane production: A modified version of the “Hohenheim Forage value Test (HFT)” was used for testing the effect of specific compounds on the rumen functions mimicked by this in-vitro system.
Principle: Feed is gadded into a syringe with a composition of rumen liquor and an appropriate mixture of buffers. The solution is incubated at 39° C. After 8 hours the quantity (and composition) of gas phase produced is measured and put into a formula for conversion.
Sample weighing: The feed stuff (i.e. TMR (44% concentrate, 6% hay, 37% maize silage and 13% grass silage) is sieved to 1 mm and weighed exactly into 64 syringes. 4 of these syringes are the substrate controls, which display the gas production without the effect of the tested compounds. 4 other syringes are positive control (3-NOP, 10 μM). When needed, 4 syringes contain a carrier control (if the test compounds need a carrier). The remaining syringes contain the test substances, by groups of 4 syringes, in the amounts as indicated in table 1.
• The components are mixed in a Woulff bottle in following order: • 711 ml water • 0.18 ml trace element solution • 355.5 ml buffer solution • 355.5 ml mass element solution • The completed solution is warmed up to 39° C. followed by the addition of 1.83 ml sodium salt solution and the addition of reduction solution at 36° C. The rumen liquor is added, when the indicator turns colourless.
Extraction of the rumen liquor: 750 ml of rumen liquor are added to approximately 1,400 ml of medium solution under continued agitation and CO2-gassing.
Filling the syringes, incubation and determining gas volumes and VFA values: The diluted rumen fluid (24 ml) is added to the glass syringe. The syringes are then incubated for 8 hours at 39° C. under gentle agitation. After 8 hours, the volume of gas produced is measured, and the percentage of methane in the gas phase is determined by gas chromatography.
The food fermented was artificial TMR (44% concentrate, 6% hay, 37% maize silage and 13% grass silage). Gossypol was obtained from Sigma-Aldrich (G8761), and used at a concentration as outlined in table 1. 3-Nitrooxy-propanol (3-NOP) was used at the concentration as outlined in table 1.

Structure (SMILES)	Total methane change [% vs. control] found (3-NOP 2.5 μM alone) [% vs. control]	Total methane change [% vs. control] found (3-NOP 5 μM alone) [% vs. control]	Total methane change [% vs. control] found (3-NOP 10 μM alone) [% vs. control]	Total methane change [% vs. control] found (G 5 μM alone) [% vs. control]	Total methane change [% vs. control] found (G 10 μM alone) [% vs. control]	Total methane change [% vs. control] found (G 20 μM alone) [% vs. control]	Total methane change [% vs. control] found (G 100 μM alone) [% vs. control]
O=[N+]([O-])OCCCO [3-NOP, 3-Nitrooxy-propanol, reference compound]	−12	−54	−98	–	–	–	–
Cc1cc2c(C(C)C)c(O)c(O)c(C=O)c2c(O)c1-c1c(C)cc2c(C(C)C)c(O)c(O)c(C=O)c2c1O [G, Gossypol]	–	–	–	−1	−11	−15	−69
